Data on 14 molecules can be found in patent US4582851A, “Anti-bacterial 1,4-aminoalkylamino-9H-thioxanthen-9-one derivatives, compositions, and method of use therefor” (Warner-Lambert Company, priority 1985, dated 1986).

Structures can show the parent of a compound that is named as a salt.

The subject of test [1] is P-388 lymphocytic leukemia. As to conditions: cited from earlier work.
In another test the test system is P388. Particulars: cited from earlier work.
Test [2] deals with lymphocytic leukemia P388. As to the kind of experiment: P388 in vivo lymphocytic leukemia test. Also on record: species or system male or female CD2 F1 mice. Particulars: for P388 in vivo T/C × 100: two single doses, four-day interval; for Number of animals surviving 30 days and considered "cured": six to seven animals per group. As to the method: The in vivo lymphocytic leukemia P388 test is carried out by the United States National Cancer Institute. The animals used are either male or female CD2 F1 mice. There are six to seven animals per test group. The tumor transplant is by intraperitoneal injection of dilute ascitic fluid containing cells of lymphocytic leukemia P388. The test compounds are administered intraperitoneally in two single doses with a four-day interval between doses at various dose levels following tumor inoculation. The animals are weighed and survivors are recorded on a regular basis for 30 days. A ratio of survival time for treated (T)/control (C) animals is calculated. The criterion for efficacy is T/C×100>125%. The positive control compound in this test is 1,4-dihydroxy-5,8-[bis[[2-[(2-hydroxyethyl)amino]-ethyl]]amino]-9,10-anthracenedione given at dosages ranging from 12.0 to 0.075 mg/kg. See Cancer Chemotherapy Reports, Part 3, 3, 1 (1972) for a comprehensive discussion of the protocol.

The subject of a further test is E. coli. As to the kind of experiment: Inhibitory zone diameter, agar disc assay, E. coli. It counts as cell-based, Escherichia coli. The protocol:
(§1) 1. Preparation of inocula
(§2) The bacterial and yeast isolates are maintained in agar slants or in liquid media, hereby designated as inoculum media. The cultures are transferred at regular intervals in such media. (See Table for the corresponding inoculum media of each culture.) The organisms are generally transferred on to agar slants or liquid inoculum media and incubated overnight (18-20 hours): 37° C. for the bacterial isolates and 28° C. for the fungal cultures.
(§3) The microbial cells from the overnight agar slants are then scraped off and suspended in saline solution (0.85% NaCl). The microbial concentrations are adjusted to a light transmittancy of 20-35%, Junior Coleman Spectrophotometer (555M). For the organisms that are maintained in liquid media, an aliquot of the culture suspension is simply diluted with saline to 20-35% light transmittancy.
(§4) The above microbial suspension serve as inocula for the assay plates. Thus, 0.16-10 ml (see Table for exact amount) are used to inoculate 100 ml of the molten-agar assay medium.
(§5) Stainless steel frames, 12.3×25.3 cm (ID) and glass plates, 15.3×31.7 cm are used to make the test trays. The frames are attached to the plates with tape at each end and the inner edges sealed with 2% agar. Twenty five ml of inoculated assay medium is spread evenly on each tray and allowed to solidify. The trays are covered, inverted, and refrigerated until used.
(§6) The compounds or samples to be tested are dissolved in suitable solvents, e.g., alcohols, dimethylsulfoxide, or N,N-dimethylformamide. The samples are generally dissolved so that the final concentration of the solvent is <10%.* The compounds are tested at different concentrations: 3,000; 1,000; 500; 100; and 10 mcg/ml. Paper discs (12.7 mm diameter) are placed on the agar trays with forceps, then 0.08 ml of the dissolved compound is pipetted onto each disc using a 0.2 ml pipette.
(§7) The disked agar trays are incubated overnight (18-20 hours) at 37° C. for the bacterial cultures and 28° C. for the yeasts. […] The diameter of the zone is measured in mm. […]

For another test, the system named is N. Catarrhali. As to the kind of experiment: Inhibitory zone diameter, agar disc assay, N. catarrhali. Type of test: cell-based. As to conditions: Conc. 100 (mg/ml). As to the method:
as §1, §2, §3, §4, §5, §6, §7

The next test has as its system A. Viscolacti. As to the kind of experiment: Inhibitory zone diameter, agar disc assay, A. viscolacti. Type of test: cell-based. As to conditions: read-out: Inhibitory Zone Diameter, A. viscolacti. As to the method: as §1, §2, §3, §4, §5, §6, §7
In a further test the test system is S. Faeculic. As to the kind of experiment: Inhibitory zone diameter, agar disc assay, S. faecalis. Type of test: cell-based, Streptococcus faecalis. Particulars: Enterococcus faecalis. As to the method:
as §1, §2, §3, §4, §5, §6, §7

A further test deals with B. Subtilis. As to the kind of experiment: Inhibitory zone diameter, agar disc assay, B. subtilis. As to conditions: Bacillus subtilis; for zone of inhibition at 100 µg/mL: Conc. 100 (mg/ml). It counts as cell-based. The protocol: as §1, §2, §3, §4, §5, §6, §7
Test [3] concerns HCT-8 (human colon adenocarcinoma) cells. The test is described as follows: HCT-8 in vitro (human colon adenocarcinoma). As to conditions: 60-65 hrs at 37° C., read-out: HCT-8 in vitro ID50. Type of test: cell-based. As to the method: In addition to their usefulness as antibiotic and antifungal agents and as antileukemic agents, certain of the compounds of the invention display in vitro activity against solid tumors when tested by the following procedure.
HCT-8 (human colon adenocarcinoma) cells are trypsinized using Trypsin-EDTA. A single cell suspension is achieved by passing the cells through a 26 gauge needle with a 20 cc syringe. A cell suspension is prepared using RPMI 1640 growth medium (available from Gibco Laboratories)+10% fetal calf serum+50 μg/ml garamycin with a cell concentration of approximately 30,000 cells/ml. The cell suspension is dispensed in Linbro 24-well plates; 1 ml/well. The plates are incubated for approximately 48 hrs at 37° C. in a 5% CO2 atmosphere. At this time test compounds are added in the appropriate concentration. Five μl of the 200 μg/ml stock solution is added to each well in a primary test. Ten μl of the appropriate dilution is added to each well for a titration test. The plates are reincubated an additional 60-65 hrs at 37° C. in a 5% CO2 atmosphere. The test is read by lysing the cells using a mix of cationic surfactant, glacial acetic acid and sodium chloride. Two ml of the lysed cell suspension from each well is added to 8 ml of diluent. Each sample is read with a Coulter counter (ZBI model). The activity of each sample is measured as a percentage of the controls and the data is reported as ID50, that is the molar quantity of drug required to kill 50% of the tumor cells.

The test system of another test is L1210 cells. As to the kind of experiment: L1210 in vitro (murine leukemia cell growth). It counts as cell-based. As to conditions: Mus musculus, L1210, 72 h; 3 days, 37° C., 5% CO2; read-out: L1210 in vitro ID50. As to the method: A test protocol uses L1210 cells, a murine leukemia cell line, grown in RPMI 1640 supplemented with 5% fetal bovine serum and gentamicin (50 μg/ml). Drug dilutions are prepared in the appropriate solvent and 20 μl of each dilution are added to 24-well Linbro tissue culture plates, followed by the addition of 2.0 ml of cell suspension containing 3×10^4 cells per ml. Solvent and medium controls are included in each test. After incubation at 37° C. for three days in 5% CO2, the contents of each well are removed and the cells counted in a ZBI Coulter counter. Percent growth are calculated relative to the controls and the levels of drug activity are expressed as ID50 in moles per liter.

The subject of the next test is tumor. As to conditions: cited from earlier work.
The mark [4] stands for this setting: 12.5 mg/kg i.p. (printed 125 for Example 1).

For the molecule `Cc1ccc(NCCNCCO)c2c(=O)c3ccccc3sc12`, the “activity against the P-388 lymphocytic leukemia” value in test [1] is “inactive”.

On to `Cc1ccc(NCCN(C)C)c2c(=O)c3ccccc3sc12`, for which, in test [1], the “activity against the P-388 lymphocytic leukemia” value is “inactive”.

Consider `CCN(CC)CCNc1ccc(C)c2sc3ccc(O)cc3c(=O)c12` [7-hydroxy analog of lucanthone], for which, in the test on P388, the “in vivo P388 activity” value was “shown to have in vivo P388 activity”.

Consider `CN(C)CCNc1ccc(NCCNCCO)c2sc3ccccc3c(=O)c12.Cl.Cl.Cl` [Example 1, 1-[[2-(Dimethylamino)ethyl]amino]-4-[[2-[(2-hydroxyethyl)amino]ethyl]amino]-9H-thioxanthen-9-one trihydrochloride], for which the “P388 in vivo T/C × 100” value worked out at 190% in test [2] (setting [4]) and 236% in test [2] (25 mg/kg i.p.). Further, the “Number of animals surviving 30 days and considered "cured"” value in [2] (25 mg/kg i.p.) stood at 1. In the test on E. coli (Escherichia coli, read-out: Inhibitory Zone Diameter, E. coli), the zone of inhibition at 3 g/mL came to 17 mm. Further, the figures for the zone of inhibition at 100 µg/mL with N. Catarrhali and in the test with B. Subtilis were 21 mm and 19 mm, respectively. Further, in the test on A. Viscolacti, the zone of inhibition at 100000 µg/mL is 17 mm. The zone of inhibition at 1600 µg/mL in the test on S. Faeculic (Conc. 1600 (mg/ml)) was 19 mm.

For `CCN(CC)CCNc1ccc(N)c2sc3ccccc3c(=O)c12` [Example 1c], the “activity against the P-388 lymphocytic leukemia” value in [1] is “inactive”.

For the molecule `CN(C)CCNc1ccc(NCCN)c2sc3ccccc3c(=O)c12` [Example 2, 4-[(2-Aminoethyl)amino]-1-[[2-(dimethylamino)ethyl]amino]-9H-thioxanthen-9-one, hydrochloride], the entries for the “P388 in vivo T/C × 100” value in [2] (setting [4]) and in test [2] (25 mg/kg i.p.) were 187% and 212%, respectively. For the same molecule, the “Number of animals surviving 30 days and considered "cured"” value in test [2] (25 mg/kg i.p.) turned out to be 1. In the test on E. coli (Escherichia coli, Conc. 1000 (mg/ml)), this molecule registered a zone of inhibition at 1000 µg/mL of 14 mm. Besides, the zone of inhibition at 100 µg/mL in the test on N. Catarrhali is 20 mm; in the test with B. Subtilis it was 16 mm. In addition, the zone of inhibition at 100000 µg/mL with A. Viscolacti turned out to be 23 mm. Moreover, the zone of inhibition at 500 µg/mL in the test with S. Faeculic (Conc. 500 (mg/ml)) stood at 14 mm.

For `CN(C)CCNc1ccc(NCCCN)c2sc3ccccc3c(=O)c12.Cl.Cl.Cl` [Example 3, 4-[(3-Aminopropyl)amino]-1-[[2-(dimethylamino)ethyl]amino]-9H-thioxanthen-9-one, trihydrochloride], the “P388 in vivo T/C × 100” value in test [2] (25 mg/kg i.p.) is recorded as 125%. Moreover, the “Inhibitory Zone Diameter, E. coli” value in the test on E. coli (concentration not given) is reported as 0 mm. In addition, the zone of inhibition at 100 µg/mL with N. Catarrhali amounted to 24 mm. Also, the zone of inhibition at 100000 µg/mL in the test with A. Viscolacti came out at 14 mm. In the test with S. Faeculic (Conc. 3000 (mg/ml)), the zone of inhibition at 3000 µg/mL was 18 mm. The molecule also came in with a zone of inhibition at 1000 µg/mL in the test with B. Subtilis (Conc. 1000 (mg/ml)) of 16 mm.

Consider `CN(C)CCNc1ccc([N+](=O)[O-])c2sc3ccccc3c(=O)c12` [Example 4, 1-[[2-(dimethylamino)ethyl]amino]-4-nitro-9H-thioxanthen-9-one], for which the IC50 in [3] worked out at 0.27 µM; in the test on L1210 cells, 0.12 µM.

Regarding `CCN(CC)CCNc1ccc([N+](=O)[O-])c2sc3cc(OC)ccc3c(=O)c12` [Example 5 NH(CH2)2 NEt2 6-OMe], the values for the IC50 (in test [3]; in the test with L1210 cells) were 1.1 µM and 1.2 µM, respectively. Besides, in test [2] (100 mg/kg i.p.), the “P388 in vivo T/C × 100” value worked out at 104%.

With `CN(C)CCNc1ccc([N+](=O)[O-])c2sc3ccc(O)cc3c(=O)c12` [Example 5 NH(CH2)2 NMe2 7-OH, 1-[[2-(Dimethylamino)ethyl]amino]-7-hydroxy-4-nitro-9H-thioxanthen-9-one], the IC50 in the test with L1210 cells was 0.0065 µM.

With `COc1ccc2sc3c([N+](=O)[O-])ccc(NCCN(C)C)c3c(=O)c2c1` [Example 5 NH(CH2)2 NMe2 7-OMe, 1-[[2-(Dimethylamino)ethyl]amino]-7-methoxy-4-nitro-9H-thioxanthen-9-one], the IC50 was determined as 1 µM in test [3] and 0.25 µM with L1210 cells. Moreover, in test [2] (100 mg/kg i.p.), the “P388 in vivo T/C × 100” value is 178%.

`CN(C)CCCNc1ccc([N+](=O)[O-])c2sc3ccccc3c(=O)c12` [Example 5 NH(CH2)3 NMe2 H, 1-[[3-(dimethylamino)propyl]amino]-4-nitro-9H-thioxanthen-9-one]: the IC50 amounted to 0.46 µM in [3] and 0.096 µM in the test on L1210 cells. Also, the “P388 in vivo T/C × 100” value in test [2] (50 mg/kg i.p.) came out at 190%.

`CCN(CC)CCNc1ccc(CO)c2sc3ccccc3c(=O)c12` [hycanthone]: the Experimental antitumor activity result in the test with tumor is recorded as “Experimental antitumor activity has been reported”.

On to `CCN(CC)CCNc1ccc(C)c2sc3ccccc3c(=O)c12` [lucanthone], for which the Experimental antitumor activity result with tumor is “Experimental antitumor activity has been reported”.
